Results taken from ChEMBL document CHEMBL3616426 (Eur J Med Chem, 2015).

Columns and labels:
Rattus norvegicus [1] = experiment: Antiosteoporotic activity in ovariectomized Sprague-Dawley rat assessed as bone volume /tissue volume at 1 ug/kg, po qd at 12th week by micro-CT analysis (reference value: 31.61 +/- 2.39%); assay type: functional
Rattus norvegicus [2] = experiment: Antiosteoporotic activity in ovariectomized Sprague-Dawley rat assessed as bone volume /tissue volume at 10 ug/kg, po qd at 12th week by micro-CT analysis (reference value: 31.61 +/- 2.39%); assay type: functional
Rattus norvegicus [3] = experiment: Antiosteoporotic activity in ovariectomized Sprague-Dawley rat assessed as bone volume /tissue volume at 1 ug/kg, po qd at 18th week by micro-CT analysis (reference value: 27.36 +/- 1.99%); assay type: functional
Rattus norvegicus [4] = experiment: Antiosteoporotic activity in ovariectomized Sprague-Dawley rat assessed as bone volume /tissue volume at 10 ug/kg, po qd at 18th week by micro-CT analysis (reference value: 27.36 +/- 1.99%); assay type: functional
Rattus norvegicus [5] = experiment: Antiosteoporotic activity in ovariectomized Sprague-Dawley rat assessed as trabecular thickness at 10 ug/kg, po qd at 6th week by micro-CT analysis (reference value: 0.086 +/- 0.0069 millimeter); assay type: functional, Trabecula
Rattus norvegicus [6] = experiment: Antiosteoporotic activity in ovariectomized Sprague-Dawley rat assessed as trabecular thickness at 3 ug/kg, po qd at 12th week by micro-CT analysis (reference value: 0.070 +/- 0.0063 millimeter); assay type: functional, Trabecula
Rattus norvegicus [7] = experiment: Antiosteoporotic activity in ovariectomized Sprague-Dawley rat assessed as trabecular thickness at 10 ug/kg, po qd at 12th week by micro-CT analysis (reference value: 0.070 +/- 0.0063 millimeter); assay type: functional, Trabecula
Rattus norvegicus [8] = experiment: Antiosteoporotic activity in ovariectomized Sprague-Dawley rat assessed as trabecular thickness at 10 ug/kg, po qd at 18th week by micro-CT analysis (reference value: 0.103 +/- 0.0044 millimeter); assay type: functional, Trabecula
Rattus norvegicus [9] = experiment: Antiosteoporotic activity in ovariectomized Sprague-Dawley rat assessed as trabecular separation at 1 ug/kg, po qd at 6th week by micro-CT analysis (reference value: 0.116 +/- 0.010 millimeter); assay type: functional, Trabecula
Rattus norvegicus [10] = experiment: Antiosteoporotic activity in ovariectomized Sprague-Dawley rat assessed as trabecular separation at 3 ug/kg, po qd at 6th week by micro-CT analysis (reference value: 0.116 +/- 0.010 millimeter); assay type: functional, Trabecula
Rattus norvegicus [11] = experiment: Antiosteoporotic activity in ovariectomized Sprague-Dawley rat assessed as trabecular separation at 1 ug/kg, po qd at 12th week by micro-CT analysis (reference value: 0.146 +/- 0.010 millimeter); assay type: functional, Trabecula
Rattus norvegicus [12] = experiment: Antiosteoporotic activity in ovariectomized Sprague-Dawley rat assessed as trabecular separation at 3 ug/kg, po qd at 12th week by micro-CT analysis (reference value: 0.146 +/- 0.010 millimeter); assay type: functional, Trabecula
Rattus norvegicus [13] = experiment: Antiosteoporotic activity in ovariectomized Sprague-Dawley rat assessed as trabecular separation at 3 ug/kg, po qd at 18th week by micro-CT analysis (reference value: 0.234 +/- 0.021 millimeter); assay type: functional, Trabecula
Rattus norvegicus [14] = experiment: Antiosteoporotic activity in ovariectomized Sprague-Dawley rat assessed as trabecular separation at 10 ug/kg, po qd at 18th week by micro-CT analysis (reference value: 0.234 +/- 0.021 millimeter); assay type: functional, Trabecula
Rattus norvegicus [15] = experiment: Antiosteoporotic activity in ovariectomized Sprague-Dawley rat assessed as bone volume /tissue volume recovery at 10 ug/kg, po qd measured at 18th week by micro-CT analysis relative to SHAM control; assay type: functional
Rattus norvegicus [16] = experiment: Antiosteoporotic activity in ovariectomized Sprague-Dawley rat assessed as serum osteocalcin level at 3 ug/kg, po qd at 12th week by enzyme immunoassay (reference value: 1055.8 +/- 14 ng/ml); assay type: functional
Rattus norvegicus [17] = experiment: Antiosteoporotic activity in ovariectomized Sprague-Dawley rat assessed as serum osteocalcin level at 10 ug/kg, po qd at 12th week by enzyme immunoassay (reference value: 1055.8 +/- 14 ng/ml); assay type: functional
Rattus norvegicus [18] = experiment: Antiosteoporotic activity in ovariectomized Sprague-Dawley rat assessed as serum osteocalcin level at 1 ug/kg, po qd at 18th week by enzyme immunoassay (reference value: 1118.9 +/- 37.77 ng/ml); assay type: functional
Rattus norvegicus [19] = experiment: Antiosteoporotic activity in ovariectomized Sprague-Dawley rat assessed as serum osteocalcin level at 3 ug/kg, po qd at 18th week by enzyme immunoassay (reference value: 1118.9 +/- 37.77 ng/ml); assay type: functional

## O=C1c2cc(O)cc(O)c2[C@@H](c2ccc(O)cc2)[C@@H]1c1cc(O)cc(O)c1 [ISOPAUCIFLORAL F]
Rattus norvegicus [1]
  Activity: 31.46%
Rattus norvegicus [2]
  Activity: 38.43%
Rattus norvegicus [3]
  Activity: 35.56%
Rattus norvegicus [4]
  Activity: 66.42%
Rattus norvegicus [5]
  Activity: 0.082 mm
Rattus norvegicus [6]
  Activity: 0.085 mm
Rattus norvegicus [7]
  Activity: 0.087 mm
Rattus norvegicus [8]
  Activity: 0.212 mm
Rattus norvegicus [9]
  Activity: 0.104 mm
Rattus norvegicus [10]
  Activity: 0.097 mm
Rattus norvegicus [11]
  Activity: 0.18 mm
Rattus norvegicus [12]
  Activity: 0.173 mm
Rattus norvegicus [13]
  Activity: 0.183 mm
Rattus norvegicus [14]
  Activity: 0.096 mm
Rattus norvegicus [15]
  Activity: 78%
Rattus norvegicus [16]
  Activity: 1109.6 ng/mL
Rattus norvegicus [17]
  Activity: 1156.07 ng/mL
Rattus norvegicus [18]
  Activity: 812.1 ng/mL
Rattus norvegicus [19]
  Activity: 713.24 ng/mL
